# Measured values: US20240108740A1, “THERAPEUTIC COMPOSITIONS INCLUDING SPN10 AND USES THEREOF” (Stealth BioTherapeutics Inc., priority 2022, published 2024)
# Residues, ends and D or L forms follow the SMILES beside them.
# How the values were obtained:
# Wild-type (WT) mice = assay: Example 2: acute cerebral ischemia (occlusion of the right middle cerebral artery); format: in vivo, mouse
# Description: Cerebral ischemia will be induced by occlusion of the right middle cerebral artery for 30 min. Wild-type (WT) mice will be given either saline vehicle (Veh) (i.p., n=9), peptide conjugates (2 mg/kg or 5 mg/kg, i.p., n=6), aromatic-cationic peptides (e.g., an equivalent molar dose of aromatic-cationic peptide based on the concentration of the aromatic-cationic peptide administered in the peptide conjugate treatment group), SPN10(s) (e.g., an equivalent molar dose of SPN10 based on the concentration of SPN10 administered in the peptide conjugate treatment group), or SPN10(s) in combination with aromatic-cationic peptides (e.g., an equivalent molar dose of SPN10 based on the concentration of SPN10 administered in the peptide conjugate treatment group and an equivalent molar dose of aromatic-cationic peptide based on the concentration of aromatic-cationic peptide administered in the peptide conjugate treatment group) at 0, 6, 24 and 48 hours after ischemia. Mice will be sacrificed 3 days after ischemia. Brains will be frozen, sectioned, and stained using Nissl stain. Infarct volume and hemispheric swelling will be determined using an image analyzer. Data will be analyzed by one-way ANOVA with posthoc analysis.
# Sprague-Dawley rats = assay: Example 40: contrast-induced nephropathy in diabetic animals; format: in vivo, rat; conditions: iohexol
# Description: Animal model: Impaired renal function caused by diabetes is one of the major predisposing factors for contrast induced nephropathy (McCullough, et al., J. Am. Coll. Cardio., 2008, 51, 1419-1428). In this experiment, a total of 57 Sprague-Dawley rats will be fed a high-fat diet for 6 weeks, followed by the administration of low-dose streptozotocin (30 mg/kg) for a period of 9 weeks. Blood glucose, serum creatinine and Cystatin C will be measured. Animals meeting the following criteria (n=20) will advance to CIN studies: Scr>250 μM, Cystatin C>750 ng/mL and blood glucose>=[…]. […]
# On day 1, serum samples will be collected and total urine protein will be measured using a Bradford assay. […] Samples will be analyzed by students t-test and differences will be considered significant at p<0.05.
# Renal function: Renal function will be assessed by determining serum and urinary creatinine at baseline, 48 hours and 72 hours following dye administration. The creatinine clearance will be calculated based on the serum and urinary creatinine and urinary volume. Urinary protein concentration will be determined by Bradford Protein Assay kit (Sigma, St. Louis, MO, U.S.A.), and Cystatin C will be measured using a Westang Rat Cystatin C kit (Shanghai, P.R.C.).
# Hairless mice = assay: Example 50: sunburn by excessive UV radiation; format: in vivo, mouse; conditions: intravenously twice per day for seven days
# Text: Hairless mice, with skin characteristics similar to humans, will be exposed to excessive UV radiation over the course of a week. […] Parameters measured will include wound contraction, re-epithelialization distance, cellularity, and collagen organization. Ki67 proliferation antigen will be assessed, as well as TUNEL and caspase-3 activation. Blood flow will be measured by […] mapping.
# cell stress recovery = conditions: Mitchell et al., bioRxiv, cited from earlier work
structure (smiles),measurement,setting,value
"N=C(N)NCCC[C@H](NC(=O)[C@@H](N)Cc1c[nH]c2ccccc12)C(=O)N[C@@H](Cc1c[nH]c2ccccc12)C(=O)N[C@@H](CCCCN)C(N)=O [SPN10, H-L-Trp-L-Arg-L-Trp-L-Lys-NH2] (H-WRWK-NH2)",depletion of GSH in the ipsilateral cortex,"Wild-type (WT) mice; 2 mg/kg i.p. at 0, 6, 24 and 48 hours",significantly be reduced
same,infarct volume and hemispheric swelling,"Wild-type (WT) mice; treatment at 0, 6, 24 and 48 hours after 30 minute occlusion, compared to saline",significant reduction in infarct volume and hemispheric swelling
same,elevated serum Cystatin C and reduced creatinine clearance following contrast dye,Sprague-Dawley rats,attenuate these effects
same,wound healing and progression of sunburn injuries,Hairless mice,accelerate wound healing and attenuate the progression of sunburn injuries
same,potency in cell stress recovery,"cell stress recovery; among SS-31, SS-20, SPN4, SPN10",greatest potency
same,"performance compared with SS-31 (cell culture assays, structure-activity analysis)",cell stress recovery,consistently outperformed SS-31
